Measured values published in patent publication US20190337889A1, “COMPOSITIONS AND METHODS OF REGULATING CANCER RELATED DISORDERS AND DISEASES” (ONCO THERAPIES LLC, priority 2016, published 2019).

Columns and labels:
[1] = system: HepG2 cells; assay: XTT cell death assay, HepG2 hepatocarcinoma cells; format: cell-based, human; conditions: Homo sapiens, HepG2, *Greater than 50% inhibition, dilutions 0.01 nM to 200 μM, usually 24 or 48 hours, read-out: HepG2* (liver cancer): concentration with greater than 50% inhibition
Description: Maintenance and Treatment of Cell Lines. Human HepG2 hepatocarcinoma cells and human U87MG glioma cells (ATCC, Manassas, Va.) were maintained in EMEM medium supplemented with 10% FBS (Hyclone, Logan, Utah). The human 1321N1 astrocytoma cells (European Collection of Cell Cultures, Sigma-Aldrich) were cultured in Dulbecco's modified Eagle's medium supplemented with 10% FBS and 2 mM L-glutamine. Human prostate carcinoma cell line PC3 was cultured in F-12K medium (Life Technologies) supplemented 10% FBS. Human lung carcinoma cell line A549 was cultured in DMEM+2 mM glutamine+10% FBS. ER positive, estrogen independent for growth MCF7/LCC9 cell line was cultured in IMEM (Biofluids) supplemented with 5% charcoal stripped calf serum. Medulloblastoma cell line DAOY was cultured in Eagle's MEM supplemented with 10% FBS.
(§1) Cell death assay. The extent of cell death and toxicity of the compounds was tested by XTT assay. The cells were plated in their respective media in 96-well plates. The compounds and were added in dilutions ranging from 0.01 nM to 200 μM and for control DMSO to 1% was used. […] For XTT assay first the medium in the wells was replaced with 200 μs of fresh phenol-red free medium. Then 50 μls of XTT solution with PMS was added to the wells. The XTT solution was made adding 0.02% phenazine methosulfate (Sigma-Aldrich #P9625) to 1 mg/ml XTT sodium salt made up in phenol-red free RPMI (Sigma-Aldrich #X4636).

[2] = system: PC3 cells; assay: XTT cell death assay, PC3 prostate carcinoma cells; format: cell-based; conditions: Homo sapiens, PC-3, # = 200 uM not tested, read-out: PC3: concentration with effect on cancer cells
Description: (§2) Maintenance and Treatment of Cell Lines. Human HepG2 hepatocarcinoma cells and human U87MG glioma cells (ATCC, Manassas, Va.) were maintained in EMEM medium supplemented with 10% FBS (Hyclone, Logan, Utah). The human 1321N1 astrocytoma cells (European Collection of Cell Cultures, Sigma-Aldrich) were cultured in Dulbecco's modified Eagle's medium supplemented with 10% FBS and 2 mM L-glutamine. Human prostate carcinoma cell line PC3 was cultured in F-12K medium (Life Technologies) supplemented 10% FBS. Human lung carcinoma cell line A549 was cultured in DMEM+2 mM glutamine+10% FBS. ER positive, estrogen independent for growth MCF7/LCC9 cell line was cultured in IMEM (Biofluids) supplemented with 5% charcoal stripped calf serum. Medulloblastoma cell line DAOY was cultured in Eagle's MEM supplemented with 10% FBS. All cell lines except […] were cultured at 37° C. in 5% CO2, and the medium was replaced every 2-3 days. MDA-MB-231 was grown in Leibovitz's L-15 medium with 10% FBS without CO2 supplementation.
as §1, with “#X4636). The plate was incubated for 4 hours at 37° C. and then the absorbance was read at a wavelength of 490 nm.” for “#X4636).”

[3] = system: A549; assay: XTT cell death assay, A549 lung carcinoma cells; format: cell-based; conditions: Homo sapiens, # = 200 uM not tested, read-out: A549: concentration with effect on cancer cells
Description: as §2
as §1, with “#X4636). The plate was incubated for 4 hours at 37° C. and then the absorbance was read at a wavelength of 490 nm.” for “#X4636).”

[4] = system: MCF7/LCC9 cell line; assay: XTT cell death assay, MCF7/LCC9 cells; format: cell-based; conditions: Homo sapiens, # = 200 uM not tested, read-out: LCC-9: concentration with effect on cancer cells
Description: as §2
as §1, with “#X4636). The plate was incubated for 4 hours at 37° C. and then the absorbance was read at a wavelength of 490 nm.” for “#X4636).”

[5] = system: DAOY; assay: XTT cell death assay, DAOY medulloblastoma cells; format: cell-based; conditions: Homo sapiens, # = 200 uM not tested, read-out: DAOY: concentration with effect on cancer cells
Description: as §2
as §1, with “#X4636). The plate was incubated for 4 hours at 37° C. and then the absorbance was read at a wavelength of 490 nm.” for “#X4636).”

[6] = system: A549 xenograft; assay: Zebrafish xenograft assay with implanted A549 cells; format: in vivo; conditions: zebrafish embryos, 100 uM, 4 days after implantation, n=10 to 15
Description: Zebrafish xenograft assay. Zebrafish embryos with implanted A549 cells were imaged within 6 hours of cell injection (day 0) and treated with compounds. At 4 days post injection (day 4) the embryos were imaged again. The area of fluorescence due to the labeled cells was measured using Image J at day 0 (area 0) and day 4 (area 4). The change in area was calculated by subtracting area 0 from area 4 (=d area). D area was then normalized for the size of the initial tumor by dividing d area by area 0 (=d area/area 0).

[7] = system: tumor cells; assay: Effect on the growth of a variety of tumor cells (summary of Table 1); format: cell-based; conditions: IC50 value of less than 100 μM was considered active
Description: as §2
Cell death assay. The extent of cell death and toxicity of the compounds was tested by XTT assay. The cells were plated in their respective media in 96-well plates. […] The plate was incubated for 4 hours at 37° C. and then the absorbance was read at a wavelength of 490 nm.
The effect of NT015 and NT016 on the growth of a variety of tumor cells was evaluated. […]

[8] = system: MDA-MB-231; assay: XTT cell death assay, MDA-MB-231 cells; format: cell-based; conditions: Homo sapiens, # = 200 uM not tested, read-out: MDA-MB-231: concentration with effect on cancer cells
Description: as §2
as §1, with “#X4636). The plate was incubated for 4 hours at 37° C. and then the absorbance was read at a wavelength of 490 nm.” for “#X4636).”

[9] = system: HepG2 cells; assay: Caspase assay (Caspase-Glo 3/7) on HepG2 cells; format: cell-based, human; conditions: n=4; for caspase activity (fluorescence ratio to untreated cells): 48 hours after addition, 100 uM
Description: Caspase Assay. Caspase assay was conducted by using the Promega Caspase-Glo 3/7 kit. 100 ul of caspase-Glo 3/7 reagent was added to each well of a white walled 96-well plate containing 100 ul of blank, negative control cells or treated cells in culture medium. The contents of the wells were mixed gently and incubated at room temperature for 30 minutes to 3 hours. The luminescence of each sample was read in a luminometer.

| Structure (SMILES) | minimal effective concentration [1] | minimal effective concentration [2] | minimal effective concentration [3] | minimal effective concentration [4] | minimal effective concentration [5] | area of A549 xenograft implant [6] | inhibition of liver, lung, breast, prostate and CNS cancer cell growth [7] | minimal effective concentration [8] | caspase activity (fluorescence ratio to untreated cells) [9] | caspase activation (fluorescence ratio to untreated cells) ([9]; 48 hours, control compound at 10 uM) |
| --- | --- | --- | --- | --- | --- | --- | --- | --- | --- | --- |
| CC(Cc1cccc2ccccc12)NCCc1ccc(O)cc1 (stereo not shown) [NT016, 4-(2-((1-(naphthalen-1-yl)propan-2-yl)amino)ethyl)phenol] | 100 µM | 200 µM | 100 µM | 100 µM | 100 µM | efficacy of reducing the area of xenograft significantly | potent inhibitors | – | – | – |
| CC(Cc1cccc2ccccc12)NCC(O)c1cccc(O)c1 (stereo not shown) [NT022, 3-(1-hydroxy-2-((1-(naphthalen-1-yl)propan-2-yl)amino)ethyl)phenol] | 100 µM | 100 µM | 100 µM | 100 µM | 100 µM | – | – | 100 µM | increase in caspase activity | – |
| CC(Cc1cccc2ccccc12)NCC(O)c1ccccc1O (stereo not shown) [NT029, 2-(1-hydroxy-2-((1-(naphthalen-1-yl)propan-2-yl)amino)ethyl)phenol] | 100 µM | 200 µM | 100 µM | 100 µM | 100 µM | efficacy of reducing the area of xenograft significantly | – | – | – | – |
| CC(Cc1ccc2ccccc2c1)NCC(O)c1ccc(O)cc1 (stereo not shown) [NT026, 4-(1-hydroxy-2-((1-(naphthalen-2-yl)propan-2-yl)amino)ethyl)phenol] | 100 µM | 100 µM | 100 µM | 100 µM | 100 µM | efficacy of reducing the area of xenograft significantly | – | 100 µM | – | – |
| CC(Cc1cccc2ccccc12)NCC(O)c1ccc(O)cc1 (stereo not shown) [NT027, 4-(1-hydroxy-2-((1-(naphthalen-1-yl)propan-2-yl)amino)ethyl)phenol] | – | – | – | 100 µM | – | efficacy of reducing the area of xenograft significantly | – | 100 µM | increase in caspase activity | – |
| Cc1ccc(CC(C)NCC(O)c2ccc(O)cc2)c2ccccc12 (stereo not shown) [NT039, 4-(1-hydroxy-2-((1-(4-methylnaphthalen-1-yl)propan-2-yl)amino)ethyl)phenol] | – | – | 100 µM | 100 µM | 100 µM | efficacy of reducing the area of xenograft significantly | – | – | – | – |
| CC(N)Cc1ccc2ccccc2c1 (stereo not shown) [NT015, 1-(naphthalen-2-yl)propan-2-amine] | – | – | – | – | – | – | potent inhibitors | – | increase in caspase activity | – |
| CC(Cc1cccc2ccccc12)NCC(O)c1ccc(O)cc1 (stereo not shown) [NT019] | 100 µM | 100 µM | 100 µM | – | 100 µM | – | – | – | increase in caspase activity | – |
| C[C@H](CCC(=O)O)C[C@H](C)C[C@H](C)C(=O)/C=C(\O)[C@H](C)C[C@H](C)C/C=C/[C@@H](C)[C@@H](O)[C@@H](C)[C@@H](O)C[C@@H]1CC[C@@](C)([C@H]2CC[C@@](C)([C@@H](C)O)O2)O1 [ionomycin, reference compound] | – | – | – | – | – | – | – | – | – | did not show an increase in caspase activation |
